Measured values taken from patent US11590116B2 (THERAVANCE BIOPHARMA R&D IP, LLC, priority 2019, dated 2023).

Experiments:
[1] = biological target: T1, recombinant human ALK5 (TGF-βR1) protein (Homo sapiens, UniProt P36897); test: Biochemical ALK5 (TGF-βR1) assay to measure pKi (LANCE Ultra ULight kinase assay); settings: apparent pKi from pIC50 by Cheng-Prusoff, read-out: ALK5 pKi (converted)
T1 construct: purchased Life Technologies PR9075A
T1 sequence (P36897 34-503): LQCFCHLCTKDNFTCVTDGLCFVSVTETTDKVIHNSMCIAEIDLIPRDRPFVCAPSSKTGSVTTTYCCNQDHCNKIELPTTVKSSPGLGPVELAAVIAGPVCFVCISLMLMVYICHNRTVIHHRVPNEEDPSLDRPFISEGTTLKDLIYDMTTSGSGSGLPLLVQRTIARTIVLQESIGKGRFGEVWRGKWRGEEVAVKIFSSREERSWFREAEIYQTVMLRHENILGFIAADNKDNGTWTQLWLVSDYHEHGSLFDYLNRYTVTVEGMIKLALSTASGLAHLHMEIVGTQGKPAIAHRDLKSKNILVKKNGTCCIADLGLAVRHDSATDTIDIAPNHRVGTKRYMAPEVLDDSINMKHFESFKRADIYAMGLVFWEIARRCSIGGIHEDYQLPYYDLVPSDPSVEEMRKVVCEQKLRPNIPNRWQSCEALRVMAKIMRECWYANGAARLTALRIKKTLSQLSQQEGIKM
How it was run: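 Dose range 10 μM–25 pM; enzyme + compound 60 min RT; ATP added (5× stock 125 μM, 2 mM DTT); 60 min 37 °C; stop with EDTA + Eu anti-phospho-Topo IIα Thr1342 Ab; TR-FRET ex 320/340, em 665 nm. 4-param pIC50 → pKi (Cheng-Prusoff).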

[2] = system: TGF-β-stimulated SMAD3 phosphorylation in BEAS-2B cells; test: Cellular ALK5 potency assay, inhibition of TGF-β stimulated pSMAD3 formation in BEAS-2B cells; type: cell-based; settings: Homo sapiens; inhibition of TGF-β stimulated pSMAD3 formation, BEAS-2B cells; read-out: BEAS2B pIC50 (converted)
How it was run: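 BEAS-2B human lung epithelial cells, seeded overnight, were pre-treated with compound in HBSS/25 mM HEPES/1% BSA for 1 h at 37 °C, then stimulated with TGF-β (final 10 ng/mL) for 30 min. Lysates were assayed for pSMAD3 by AlphaLISA; pIC50 came from dose-dependent signal change versus TGF-β-stimulated untreated cells.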

Compound	Ki [1] [nM]	IC50 [2] [nM]
Cc1cccc(-c2[nH]cnc2-c2ccc3ncc(-c4ccc(C(=O)OCC5CNC5)cn4)cc3c2)n1 [Compound 1103, azetidin-3-ylmethyl 6-[6-[5-(6-methyl-2-pyridyl)-1H-imidazol-4-yl]-3-quinolyl]pyridine-3-carboxylate]	< 0.0316	25.1 to 158
Cc1cccc(-c2[nH]cnc2-c2ccc3nccc(C(=O)O[C@H]4C[C@@H](N)C4)c3c2)n1 [Compound 1042, (3-aminocyclobutyl) 6-[5-(6-methyl-2-pyridyl)-1H-imidazol-4-yl]quinoline-4-carboxylate]	0.398 to 3.16	25.1 to 158
Cc1cccc(-c2[nH]ncc2-c2ccc3ncc(C(=O)O[C@H]4CC[C@@](C)(N)CC4)cc3c2)n1 [Compound 1177, (4-amino-4-methyl-cyclohexyl) 6-[5-(6-methyl-2-pyridyl)-1H-pyrazol-4-yl]quinoline-3-carboxylate]	0.0398 to 0.316	25.1 to 158
Cc1cccc(-c2nc3ccccn3c2-c2ccc3ncc(-c4cnn5c4CNCC5)cc3n2)n1 [Compound 587, 2-(2-(6-methylpyridin-2-yl)imidazo[1,2-a]pyridin-3-yl)-7-(4,5,6,7-tetrahydropyrazolo[1,5-a]pyrazin-3-yl)-1,5-naphthyridine]	0.0398 to 0.316	25.1 to 158
COC(=O)N1CCc2nnc(-c3cnc4ccc(-c5c[nH]nc5-c5cccc(C)n5)nc4c3)cc2C1 [Compound 613, methyl 3-[6-[3-(6-methyl-2-pyridyl)-1H-pyrazol-4-yl]-1,5-naphthyridin-3-yl]-7,8-dihydro-5H-pyrido[4,3-c]pyridazine-6-carboxylate]	0.0398 to 0.316	25.1 to 158
Cc1cccc(-c2n[nH]cc2-c2ccc3ncc(N4CCNCC4)cc3n2)n1 [Compound 73, 2-[3-(6-methyl-2-pyridyl)-1H-pyrazol-4-yl]-7-piperazin-1-yl-1,5-naphthyridine]	< 0.0316	< 20
Cc1cccc(-c2[nH]ncc2-c2ccc3ncc(C(=O)NN)cc3n2)n1 [Compound 247, 6-[5-(6-methyl-2-pyridyl)-1H-pyrazol-4-yl]-1,5-naphthyridine-3-carbohydrazide]	0.0398 to 0.316	25.1 to 158
Cc1cccc(-c2n[nH]cc2-c2ccc3ncc(N4CCNC5(CCC5)C4)cc3n2)n1 [Compound 223, 7-(5,8-diazaspiro[3.5]nonan-8-yl)-2-[3-(6-methyl-2-pyridyl)-1H-pyrazol-4-yl]-1,5-naphthyridine]	0.0398 to 0.316	25.1 to 158
Cc1cccc(-c2n[nH]cc2-c2ccc3ncc(C4=CCC(NCc5ccccc5)CC4)cc3n2)n1 (centres unmarked) [Compound 502, N-benzyl-4-[6-[3-(6-methyl-2-pyridyl)-1H-pyrazol-4-yl]-1,5-naphthyridin-3-yl]cyclohex-3-en-1-amine]	< 0.0316	25.1 to 158
COc1[nH]nc(-c2cccc(C)n2)c1-c1ccc2ncc(Br)cc2n1 [Compound 42, 7-bromo-2-(5-methoxy-3-(6-methylpyridin-2-yl)-1H-pyrazol-4-yl)-1,5-naphthyridine]	0.0398 to 0.316	25.1 to 158
Cc1cccc(-c2[nH]cnc2-c2ccc3ncc(NCCN4CCC[C@H](N)C4)cc3c2)n1 [Compound 623, N-[2-[(3S)-3-amino-1-piperidyl]ethyl]-6-[5-(6-methyl-2-pyridyl)-1H-imidazol-4-yl]quinolin-3-amine]	0.0398 to 0.316	200 to 1260
Cc1cccc(-c2[nH]cnc2-c2ccc3ncc(-c4ccc(C(=O)O)s4)cc3c2)n1 [Compound 1005, 5-(6-(5-(6-methylpyridin-2-yl)-1H-imidazol-4-yl)quinolin-3-yl)thiophene-2-carboxylic acid]	0.0398 to 0.316	1580 to 10000
COc1[nH]nc(-c2cccc(C)n2)c1-c1ccc2ncc(NCCN3CCOCC3)cc2n1 [Compound 87, 6-[5-methoxy-3-(6-methyl-2-pyridyl)-1H-pyrazol-4-yl]-N-(2-morpholinoethyl)-1,5-naphthyridin-3-amine]	0.398 to 3.16	200 to 1260
Cc1cccc(-c2[nH]cnc2-c2ccc3ncc(-c4ncc(CN5CCNCC5)s4)cc3c2)n1 [Compound 1055, 2-[6-[5-(6-methyl-2-pyridyl)-1H-imidazol-4-yl]-3-quinolyl]-5-(piperazin-1-ylmethyl)thiazole]	0.0398 to 0.316	< 20
Cc1cccc(-c2[nH]ncc2-c2ccc3ncc(C(=O)OCCN4CCN5CCCC5C4)cc3c2)n1 (centres unmarked) [Compound 1234, 2-(3,4,6,7,8,8a-hexahydro-1H-pyrrolo[1,2-a]pyrazin-2-yl)ethyl 6-[5-(6-methyl-2-pyridyl)-1H-pyrazol-4-yl]quinoline-3-carboxylate]	0.0398 to 0.316	25.1 to 158
CNCCn1cc(-c2cnc3ccc(-c4nc[nH]c4-c4ccc(F)c(C)n4)cc3c2)cn1 [Compound 401, 2-[4-[6-[5-(5-fluoro-6-methyl-2-pyridyl)-1H-imidazol-4-yl]-3-quinolyl]pyrazol-1-yl]-N-methyl-ethanamine]	< 0.0316	25.1 to 158
Cc1cccc(-c2[nH]cnc2-c2ccc3ncc(C4=CCC(NCC5CCC(=O)O5)CC4)cc3c2)n1 (centres unmarked) [Compound 590, 5-[[[4-[6-[5-(6-methyl-2-pyridyl)-1H-imidazol-4-yl]-3-quinolyl]cyclohex-3-en-1-yl]amino]methyl]tetrahydrofuran-2-one]	0.0398 to 0.316	25.1 to 158
CNCCn1ccc(-c2cnc3ccc(-c4c[nH]nc4-c4cccc(C(C)C)n4)nc3c2)n1 [Compound 276, 2-[3-[6-[3-(6-isopropyl-2-pyridyl)-1H-pyrazol-4-yl]-1,5-naphthyridin-3-yl]pyrazol-1-yl]-N-methyl-ethanamine]	< 0.0316	25.1 to 158
Cc1cccc(-c2n[nH]cc2-c2ccc3ncc(N4CC5CN(C)CC54)cc3n2)n1 (centres unmarked) [Compound 304, 7-(3-methyl-3,6-diazabicyclo[3.2.0]heptan-6-yl)-2-[3-(6-methyl-2-pyridyl)-1H-pyrazol-4-yl]-1,5-naphthyridine]	0.0398 to 0.316	25.1 to 158
Cc1cccc(-c2[nH]cnc2-c2ccc3ncc(-c4ncc(C5=CCNC5)s4)cc3c2)n1 [Compound 1118, 5-(2,5-dihydro-1H-pyrrol-3-yl)-2-[6-[5-(6-methyl-2-pyridyl)-1H-imidazol-4-yl]-3-quinolyl]thiazole]	0.0398 to 0.316	< 20
Cc1cccc(-c2n[nH]cc2-c2ccc3nccc(NC(=O)CCN4CCOCC4)c3n2)n1 [Compound 841, N-[6-[3-(6-methyl-2-pyridyl)-1H-pyrazol-4-yl]-1,5-naphthyridin-4-yl]-3-morpholino-propanamide]	0.398 to 3.16	25.1 to 158
Cc1cccc(-c2[nH]cnc2-c2ccc3ncc(C4=CCC5(CC4)CNC5)cc3c2)n1 [Compound 294, 3-(2-azaspiro[3.5]non-6-en-7-yl)-6-[5-(6-methyl-2-pyridyl)-1H-imidazol-4-yl]quinoline]	0.0398 to 0.316	25.1 to 158
Cc1cccc(-c2n[nH]cc2-c2ccc3ncc(-c4ccc(C5CCCN(C(C)C)C5)cc4)cc3n2)n1 (centres unmarked) [Compound 265, 7-[4-(1-isopropyl-3-piperidyl)phenyl]-2-[3-(6-methyl-2-pyridyl)-1H-pyrazol-4-yl]-1,5-naphthyridine]	0.0398 to 0.316	200 to 1260
Cc1cccc(-c2[nH]cnc2-c2ccc3ncc(C4=CC(N)CCC4)cc3c2)n1 (centres unmarked) [Compound 138, 3-[6-[5-(6-methyl-2-pyridyl)-1H-imidazol-4-yl]-3-quinolyl]cyclohex-2-en-1-amine]	0.0398 to 0.316	25.1 to 158
Cc1cccc(-c2[nH]cnc2-c2ccc3ncc(C4=CC[C@@H](NC(=O)[C@H]5CCCN5)CC4)cc3c2)n1 [Compound 777, (2R)-N-[(1S)-4-[6-[5-(6-methyl-2-pyridyl)-1H-imidazol-4-yl]-3-quinolyl]cyclohex-3-en-1-yl]pyrrolidine-2-carboxamide]	0.0398 to 0.316	25.1 to 158
Cc1nc(-c2n[nH]cc2-c2ccc3ncc(-c4[nH]nc5c4CCNC5)cc3n2)ccc1F [Compound 7, 2-[3-(5-fluoro-6-methyl-2-pyridyl)-1H-pyrazol-4-yl]-7-(4,5,6,7-tetrahydro-2H-pyrazolo[3,4-c]pyridin-3-yl)-1,5-naphthyridine]	0.0398 to 0.316	200 to 1260
Cc1cccc(-c2[nH]cnc2-c2ccc3ncc(-c4cc(C(=O)O[C@@H]5CCNC5)cs4)cc3c2)n1 [Compound 1105, [(3R)-pyrrolidin-3-yl] 5-[6-[5-(6-methyl-2-pyridyl)-1H-imidazol-4-yl]-3-quinolyl]thiophene-3-carboxylate]	< 0.0316	25.1 to 158
Cc1cccc(-c2[nH]cnc2-c2ccc3ncc(-c4ccc(C(=O)OCCN5CC[C@@H](N)C5)cn4)cc3c2)n1 [Compound 1167, 2-[(3R)-3-aminopyrrolidin-1-yl]ethyl 6-[6-[5-(6-methyl-2-pyridyl)-1H-imidazol-4-yl]-3-quinolyl]pyridine-3-carboxylate]	0.0398 to 0.316	25.1 to 158
